Laboratory results: patent US9725463B2, “Substituted heterocyclic compounds as CRAC modulators” (LUPIN LIMITED, priority 2013, dated 2017)

System: IL-2 secretion by Jurkat T cells
Test: Inhibition of IL-2 secretion
Format: cell-based
Details: Homo sapiens; Jurkat T cells stimulated with PHA, 20 to 24 hours, IL-2 by ELISA
Experimental: The CRAC channel modulatory activity of the compounds were thus evaluated by measuring the secretion of IL-2 by antigen stimulated T-cells in vitro. Alternatively, such activity can also be evaluated by assay methods known to one skilled in the art.
Inhibition of IL-2 secretion: Jurkat T cells were seeded at a density of 0.5 to 1 million cells per well in RPMI medium. Test compounds from this invention were added to the cells at different concentrations. This was followed by the addition of PHA, a T cell mitogen after 10 minutes. The cells were then incubated for 20 to 24 hours in a CO2 incubator at 37° C. After incubation with the compounds, cells were centrifuged, the supernatant was collected and processed for ELISA to quantitate the amount of IL-2 secreted. A commercial ELISA kit (R&D Systems, Inc. Minneapolis, Minn., USA) was used to estimate the IL-2 concentrations. Amount of IL-2 secreted by cells stimulated with PHA was considered as a 100% maximal signal and the decrease in amount of IL-2 secreted by cells treated with the test compounds was expressed as percent inhibition of the maximal signal. The dose response data was analyzed using 4-parametric sigmoidal dose response (variable slope) curve-fit.

SMILES: CCc1cc2c(cc1-c1ccc(C(=O)Nc3c(F)cccc3F)s1)oc(=O)n2C [Example 73, N-(2,6-Difluorophenyl)-5-(5-ethyl-3-methyl-2-oxo-2,3-dihydrobenzo [d]oxazol-6-yl) thiophene-2-carboxamide]
- IC50: 25 to 50 nM

SMILES: Cc1cc2oc(=O)n(CCC(F)(F)F)c2cc1-c1ccc(NC(=O)c2c(F)cccc2F)cc1 [Example 33, 2,6-Difluoro-N-(4-(6-methyl-2-oxo-3-(3,3,3-trifluoropropyl)-2,3-dihydrobenzo[d]oxazol-5-yl)phenyl) benzamide]
- IC50: 100 to 500 nM

SMILES: Cc1cc2oc(=O)n(C)c2cc1-c1ccc(NC(=O)c2c(F)cccc2F)cc1 [Example 27, N-(4-(3,6-Dimethyl-2-oxo-2,3-dihydrobenzo [d]oxazol-5-yl)phenyl)-2,6-difluorobenzamide]
- IC50: < 25 nM

SMILES: O=C(Nc1ccc(-c2ccc3c(oc(=O)n3C(F)F)c2C2CC2)cc1)c1c(F)cccc1F [Example 95, N-(4-(7-Cyclopropyl-3-(difluoromethyl)-2-oxo-2,3-dihydrobenzo[d]oxazol-6-yl)phenyl)-2,6-difluorobenzamide]
- IC50: < 25 nM

SMILES: CCCn1c(=O)oc2cc(C)c(-c3ccc(NC(=O)c4c(F)cccc4F)cc3)cc21 [Example 34, 2,6-Difluoro-N-(4-(6-methyl-2-oxo-3-propyl-2,3-dihydrobenzo [d]oxazol-5-371)phenyl)benzamide]
- IC50: < 25 nM

SMILES: Cn1c(=O)oc2c(C3CC3)c(-c3ccc(NC(=O)c4c(F)cccc4F)nc3)ccc21 [Example 25, N-(5-(7-Cyclopropyl-3-methyl-2-oxo-2,3-dihydrobenzo[d]oxazol-6-yl)pyridin-2-yl)-2,6-difluorobenzamide]
- IC50: 25 to 50 nM

SMILES: Cn1c(=O)oc2c(C3CC3)c(-c3ccc(NC(=O)c4ccccc4Cl)cc3)ccc21 [Example 103, 2-Chloro-N-(4-(7-cyclopropyl-3-methyl-2-oxo-2,3-dihydrobenzo[d]oxazol-6-yl)phenyl)benzamide]
- IC50: 50 to 100 nM
